pIC50: −log10 of the molar value.
Tests used:
293 ATXN3/Q75-GFP cells = experiment: ATXN3/Q75 aggregation assay (high content analysis); assay type: cell-based, human; details: at 100 nM; 6 days doxycycline and oxaliplatin
Method: Then, doxycycline (10 μg/mL, BD) was added to the medium in each well to induce ATXN3/Q75-GFP expression for 6 days. […] Then, cells were stained with Hoechst 33342 (0.1 μg/mL, Sigma) and aggregation percentage was assessed by high content analysis (HCA) system (ImageXpressMICRO, Molecular Devices), with excitation/emission wavelengths at 482/536 (EGFP).

HSF1 promoter = experiment: Triple fluorescent reporter cells, HSF1 promoter activity; assay type: cell-based, human; details: 100 nM-100 μM, 24 hours
Text: (§1) Referring to three references (Zhang Y, Koushik S, Dai R, Mivechi N F, Journal of Biological Chemistry, vol. 273, no. 49, pp. 32514-32521, 1998; He M, Guo H, Yang X, Zhou L, Zhang X, Cheng L, Zeng H, Hu F B, Tanguay R M, Wu T, PLoS One, vol. 5, no. 3, e9684, 2010; and Wu Y R, Wang C K, Chen C M, Hsu Y, Lin S J, Lin Y Y, Fung H C, Chang K H, Lee-Chen G J, Human Genetics, vol. 114, no. 3, pp. 236-241, 2004), a triple fluorescent reporter plasmid was constructed in pAmCyan1-N1 with mCherry, ZsYellow1 and AmCyan1 fluorescent reporters driven by heat shock transcription factor1 (HSF1, −360˜+2, with the translation initiation A as +1), heat shock cognate protein (HSPA8, −1140˜+38, driving constitutively expressed HSP70) and heat-inducible HSP70 chaperone (HSPA1A, −273˜+215, driving heat-inducible HSP70) promoters, respectively. The fragment containing the HSF1, HSPA8 and HSPA1A driven reporters was removed with AseI and NotI restriction enzymes and used to replace an AseI-NotI fragment in pcDNA5/FRT/TO plasmid (Invitrogen). The resulting triple fluorescent reporter plasmid was used to generate triple fluorescent reporter cells by targeted insertion into Flp-In™-293 cells, according to the supplier's instructions (Invitrogen). The cells were selected by medium containing 5 μg/mL blasticidin S and 100 μg/mL hygromycin.
(§2) The three fluorescence colors were analyzed simultaneously using high-content analysis (HCA) system (ImageXpressMICRO, Molecular Devices), with excitation/emission wavelengths at […], 531/540 (ZsYellow1) and […].

HSPA8 promoter = experiment: Triple fluorescent reporter cells, HSPA8 promoter activity; assay type: cell-based, human; details: 100 nM-100 μM, 24 hours
Text: as §1, §2

HSPA1A promoter = experiment: Triple fluorescent reporter cells, HSPA1A promoter activity; assay type: cell-based, human; details: 100 nM-100 μM, 24 hours
Text: as §1, §2

SH-SY5Y cells = experiment: MTT cytotoxicity against SH-SY5Y cells; details: read-out: IC50 (cytotoxicity) against SH-SY5Y cells; MTT assay, 24 hours
Method: (§3) Human embryonic kidney HEK-293 cells (ATCC No. CRL-1573) were cultivated in Dulbecco's modified Eagle's medium (DMEM) containing 10% fetal bovine serum (FBS). Human neuroblastoma SH-SY5Y cells (ATCC No. CRL-2266) were maintained in DMEM F12 supplemented with 10% FBS. Cells were cultivated at 37° C. incubator containing 5% CO2 and cell proliferation was measured based upon the reduction of the tetrazolium salt, 3,[4,5-dimethylthiazol-2-yl]-2,5-diphenyl-tetrazolium bromide (MTT). […] After one day, 20 μL MTT (5 mg/mL in PBS, Sigma) was added to cells and incubated for 2 hours. The absorbance of the purple formazan dye was measured at 570 nm by a Bio-Tek μtQuant Universal Microplate Spectrophotometer.

[1] = tested on: SCA17 mouse cerebellar slice culture; experiment: SCA17 mouse cerebellar slice culture, Purkinje cell aggregation; assay type: cell-based
Method: Cerebellum was separated from p7 SCA17 mice and transferred to ice-cold medium containing 50% basal medium eagle (Invitrogen), 25% Hank's buffered salt solution (Invitrogen), 25% horse serum (Invitrogen), 0.5% D-glucose (Sigma), 1 mM GlutaMAX I (Invitrogen), 100 U/mL penicillin (Invitrogen) and 100 μg/mL streptomycin (Invitrogen). The cerebellum was separated from the other brain regions in ice-cold medium, and the hemisphere was then cut into 350 μm parasagittal sections with a vibratome (VT1200S, Leica). To improve the survival rate of cerebellar slices, we continuously bubbled the medium with 95% O2 and 5% CO2 during the sectioning. The slices were then cultured on 0.4 μm pore size culture plate inserts (Millipore) in six-well plates. All treatments were applied to the slices at day 2. After culture for 7 days, cells were immunostained with primary antibody [IP3R-1 (for Purkinje cells), 1:1000, Santa Cruz; 1TBP18 (for aggregation), 1:30000, QED Bioscience], fluorescence-conjugated secondary antibody (1:500, Invitrogen) and DAPI (1:10000, Sigma). The staining results were observed by confocal microscope (DMRE, TCS SP2, Leica).
To further confirm neuroprotective potential of the indole compounds, we applied indole and NC001-8 to the SCA17 mouse cerebellar primary and slice cultures, respectively. […]

in vitro [2] = details: human, HEK-293 cells
Method: as §3

in vitro [3] = details: human, SH-SY5Y cells
Method: as §3

LC3 = experiment: LC3-II/LC3-I ratio (autophagy) in 293 ATXN3/Q75 cells, Western blot; assay type: cell-based, human; details: 293 ATXN3/Q75 cells +Dox 6 days, 200 nM; +Dox alone 59%
Method: Total proteins were prepared using lysis buffer containing 50 mM Tris-HCl, 150 mM NaCl, 1 mM EDTA, 1 mM EGTA, 0.1% SDS and 0.5% sodium deoxycholate, 1% Triton X-100, and protease inhibitor cocktail (Calbiochem). Proteins (25 μg) were separated on 10% SDS-polyacrylamide gel electrophoresis and blotted on to nitrocellulose membranes by reverse electrophoresis. After blocking, the membrane was probed with antibody to HSF1 (1:1000 dilution, Abnova), HSPA8 (1:500 dilution, Santa Cruz), HSPA1A (1:500 dilution, Santa Cruz), GFP (1:500 dilution, Santa Cruz), LC3 (1:3000 dilution, MBL International), TBP (N-12) (1:500 dilution, Santa Cruz), β-actin (1:5000 dilution, Millipore) or GAPDH (1:1000 dilution, MDBio) at 4° C. overnight. Then the immune complexes were detected by horseradish peroxidase-conjugated goat anti-mouse (Jackson ImmunoResearch) or goat anti-rabbit (Rochland) IgG antibody (1:5000 dilution, GeneTex) and chemiluminescent substrate (Millipore).

geranylgeranylacetone [GGA, reference compound]
ATXN3/Q75 aggregation as compared to untreated cells (100%) (293 ATXN3/Q75-GFP cells): 85% | HSF1 promoter activity (HSF1 promoter): enhanced | HSPA8 promoter activity (HSPA8 promoter): enhanced | HSPA1A promoter activity (HSPA1A promoter): enhanced | pIC50 (SH-SY5Y cells): 3.00

c1ccc2[nH]ccc2c1 [indole]
HSF1 promoter activity (HSF1 promoter): same trend of enhancement | HSPA8 promoter activity (HSPA8 promoter): same trend of enhancement | HSPA1A promoter activity (HSPA1A promoter): same trend of enhancement | reduction of Purkinje cell aggregation ([1]; 10 nM): 28% | IC50 at 24 h (in vitro [2]): > 1000 µM | IC50 at 24 h (in vitro [3]): 680 µM

O=C(CCCCCCC(=O)Nc1ccccc1)NO [SAHA, suberoylanilide hydroxamic acid]
ATXN3/Q75 aggregation as compared to untreated cells (100%) (293 ATXN3/Q75-GFP cells): 85%

O=C1CCc2[nH]c3ccccc3c21 [NC001-8, 3,4-dihydrocyclopenta[b]indol-1(2H)-one]
HSF1 promoter activity (HSF1 promoter): same trend of enhancement | HSPA8 promoter activity (HSPA8 promoter): same trend of enhancement | HSPA1A promoter activity (HSPA1A promoter): same trend of enhancement | reduction of Purkinje cell aggregation ([1]; 10 μM): 16% | IC50 at 24 h (in vitro [2]): > 1000 µM | IC50 at 24 h (in vitro [3]): 390 µM

CO[C@H]1C[C@@H]2CC[C@@H](C)[C@@](O)(O2)C(=O)C(=O)N2CCCC[C@H]2C(=O)O[C@H]([C@H](C)C[C@@H]2CC[C@@H](O)[C@H](OC)C2)CC(=O)[C@H](C)/C=C(\C)[C@@H](O)[C@@H](OC)C(=O)[C@H](C)C[C@H](C)/C=C/C=C/C=C/1C [rapamycin]
LC3-II/LC3-I ratio (LC3): 98%
